Experimental findings from US11130768B2, “Bicyclic pyrazole derivatives” (Bayer Animal Health GMBH, priority 2017, dated 2021) are described below.

Assay [1] concerns Nippostrongylus brasiliensis. Briefly: In Vitro Assay 2: Nippostrongylus brasiliensis (NIPOBR), acetylcholine esterase readout. Conditions: adult worms, read-out: activity (reduction of AChE compared to negative control); for inhibition at 1 µg/mL: 1 μg/ml (1 ppm); for inhibition at 10 µg/mL: 10 μg/ml (10 ppm). How it is done: In Vitro Assay 2: Nippostrongylus brasiliensis (NIPOBR)
Adult Nippostrongylus brasiliensis were washed with saline buffer containing 100 U/ml penicillin, 0.1 mg/ml streptomycin and 2.5 μg/ml amphotericin B. Test compounds were dissolved in DMSO and worms were incubated in medium in a final concentration of 10 μg/ml (10 ppm) respectively 1 μg/ml (1 ppm). An aliquot of the medium was used to determine the acetylcholine esterase activity in comparison to a negative control. The principle of measuring acetylcholine esterase as readout for anthelmintic activity was described in Rapson et al (1986) and Rapson et al (1987).

Assay [2] relates to Dirofilaria immitis microfilariae. Briefly: In Vitro Assay 3: Dirofilaria immitis microfilariae (DIROIM L1), motility. Conditions: 72 h, read-out: EC50 (reduction of motility).
Assay [3] has as its system Cooperia curticei. Conditions: 120 h, read-out: activity (larval mortality).
Procedure: In Vitro Assay 6: Cooperia curticei (COOPCU L3)
Solvent: dimethyl sulfoxide
Approximately 40 nematode larvae (Cooperia curticei) are transferred into a test tube containing the compound solution.
After 5 days percentage of larval mortality is recorded. 100% efficacy means all larvae are killed; 0% efficacy means no larvae are killed.
Assay [4] deals with C. elegans Slo-1a (Caenorhabditis elegans, UniProt Q95V25).
Sequence of C. elegans Slo-1a (Q95V25 whole entry): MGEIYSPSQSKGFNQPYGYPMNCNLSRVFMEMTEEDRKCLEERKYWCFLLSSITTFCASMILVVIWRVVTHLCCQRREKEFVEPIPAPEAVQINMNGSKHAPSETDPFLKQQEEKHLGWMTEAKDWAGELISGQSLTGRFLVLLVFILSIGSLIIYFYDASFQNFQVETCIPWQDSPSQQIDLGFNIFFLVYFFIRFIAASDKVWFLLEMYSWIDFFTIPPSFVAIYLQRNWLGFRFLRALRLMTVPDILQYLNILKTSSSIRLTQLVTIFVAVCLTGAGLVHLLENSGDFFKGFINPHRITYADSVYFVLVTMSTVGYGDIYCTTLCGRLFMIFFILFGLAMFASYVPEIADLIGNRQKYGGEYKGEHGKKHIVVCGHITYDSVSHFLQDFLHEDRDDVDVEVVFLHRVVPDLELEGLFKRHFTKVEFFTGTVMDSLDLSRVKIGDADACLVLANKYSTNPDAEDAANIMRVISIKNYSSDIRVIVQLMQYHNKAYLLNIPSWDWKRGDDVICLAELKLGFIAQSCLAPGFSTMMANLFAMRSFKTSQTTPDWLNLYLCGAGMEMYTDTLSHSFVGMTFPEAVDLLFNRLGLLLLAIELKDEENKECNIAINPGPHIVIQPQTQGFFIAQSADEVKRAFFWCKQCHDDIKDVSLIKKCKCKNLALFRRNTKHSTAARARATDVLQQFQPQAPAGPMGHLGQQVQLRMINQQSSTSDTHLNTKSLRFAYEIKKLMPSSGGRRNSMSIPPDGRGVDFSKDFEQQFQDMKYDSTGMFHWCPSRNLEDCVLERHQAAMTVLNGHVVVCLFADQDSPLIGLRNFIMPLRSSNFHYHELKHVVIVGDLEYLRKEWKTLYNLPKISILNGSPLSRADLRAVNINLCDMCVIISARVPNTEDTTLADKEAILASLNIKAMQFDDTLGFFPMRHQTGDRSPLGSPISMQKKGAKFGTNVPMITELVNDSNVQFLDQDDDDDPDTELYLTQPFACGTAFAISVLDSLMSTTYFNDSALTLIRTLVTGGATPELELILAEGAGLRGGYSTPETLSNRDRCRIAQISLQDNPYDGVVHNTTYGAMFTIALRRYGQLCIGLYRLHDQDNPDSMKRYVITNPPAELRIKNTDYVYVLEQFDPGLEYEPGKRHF
Procedure: In Vitro Assay 1: C. elegans Slo-1a—Action at a Recombinant C. elegans Cell Line
Generation of a Stable C. elegans CHO Cell Line
A CHO cell line was obtained from ATCC, code ATCC CRL-9096. For transfection with plasmid DNA to express C. elegans Slo-1a (accession number AAL28102) CHO cells were passaged to 40% confluence before adding the transfection solution to the cell culture. The transfection solution included 300 μL OptiMEM (Life Technologies, Nr.: 31985), 2 μL (=6 μg) of plasmid DNA containing the C. elegans Slo 1a gene and 9 μL FugeneHD (Promega, Nr.: E2311), and was added to the cells prior to incubation for 48 hours at 37° C., 5% CO2. The transfection medium was exchanged for the selection medium which contains additional G418 (2 mg/ml, Invitrogen, Nr.: 10131) and the cells were seeded into 384 well plates (300 cells/well). After a few weeks, the remaining surviving cells were tested with a voltage sensitive dye (Membrane Potential Assay Kit, Molecular Devices Nr.: R8034) for K+ channel expression. Positive cell clones were purified by the limited dilution technique. For this the clone with the highest and most robust signal in the voltage sensitive dye assay was further subcloned (incubated) in 384 well plates (0.7 cells/well) in order to obtain clonal purity. This generated a final stable CHO cell line expressing the C. elegans Slo-1a.
Cells were cultured at 37° C. and 5% CO2 in MEMalpha with Gutamax I (Invitrogen, Nr.: 32571), supplemented with 10% (v/v) heat inactivated fetal bovine serum (Invitrogen, Nr.: 10500), G418 (1 mg/ml, Invitrogen, Nr.: 10131). Cells were detached using Accutase (Sigma, Nr.: A6964).
Membrane Potential Measurements
Laboratory compound testing was performed on 384-well microtiter plates (MTPs, Greiner, Nr.: 781092). 8000 cells/well were plated onto 384-well MTPs and cultured for 20 to 24 hours at 37° C. and 5% CO2. After removal of the cell culture medium, the cells were washed once with tyrode (150 mM NaCl, 0.3 mM KCl, 2 mM CaCl2, 1 mM MgCl2, 0.8 mM NaH2PO4, 5 mM Glucose, 28 mM Hepes, pH 7.4) and then loaded with the voltage sensitive dye of the Membrane Potential Assay Kit diluted in tyrode for 1 h at room temperature.
After starting the measurement of fluorescence using a FLIPR Tetra (Molecular Devices, Exc. 510-545 nm, Emm. 565-625 nm), test compounds were added followed by the addition of KCl tyrode (final assay concentration: 70 mM KCl, 2 mM CaCl2, 1 mM MgCl2, 0.8 mM NaH2PO4, 5 mM Glucose, 28 mM Hepes, pH 7.4, including the voltage sensitive dye). The measurement was completed after 7 minutes.
The data were evaluated by using the ActivityBase XLfit software (IDBS) for curve fitting and calculation of the half-maximal effective concentration (EC50) and are reported as negative decadic logarithm (pE50).
Assay [5] has as its system Haemonchus contortus. As to conditions: 120 h, read-out: activity (larval mortality).
Procedure: Solvent: dimethyl sulfoxide
Approximately 40 larvae of the red stomach worm (Haemonchus contortus) are transferred into a test tube containing compound solution.
After 5 days the percentage of larval mortality is recorded. 100% efficacy means all larvae are killed, 0% efficacy means no larvae are killed.

What is called EC50 is the concentration giving half of the maximal effect. A word on the mortality: it is the percentage killed. In the case of `Cc1nn2c(C(C)C)c(C(=O)N[C@H]3CCOc4ccccc43)sc2c1-c1ccc(F)c(N(C)C)c1F` [Example 6, N-[(4S)-3,4-dihydro-2H-chromen-4-yl]-7-[3-(dimethylamino)-2,4-difluorophenyl]-6-methyl-3-(propan-2-yl)pyrazolo[5,1-b][1,3]thiazole-2-carboxamide], in assay [1], the inhibition at 1 µg/mL was above 80% and the inhibition at 10 µg/mL is above 80%. In assay [2], the EC50 was below 0.1 µg/mL. Besides, in assay [3], the mortality at 20 ppm came out at 90%. This compound also came in with an EC50 in assay [4] below 3.16 nM.
In the case of `Cc1nn2c(C(C)C)c(C(=O)N[C@H]3CCc4ccccc43)sc2c1-c1cc(Cl)c(F)c(Cl)c1` [Example 14, 7-(3,5-dichloro-4-fluorophenyl)-N-[(1S)-2,3-dihydro-1H-inden-1-yl]-6-methyl-3-(propan-2-yl)pyrazolo[5,1-b][1,3]thiazole-2-carboxamide], in assay [1], the inhibition at 1 µg/mL was above 80%. The inhibition at 10 µg/mL in assay [1] is above 80%. Further, the EC50 in assay [2] is below 0.1 µg/mL; in assay [4], 3.16 to 31.6 nM.
Turning to `Cc1nn2c(C(C)C)c(C(=O)N[C@H]3CCOc4ccccc43)sc2c1-c1ccc(Cl)c(Cl)c1` [Example 7, 7-(3,4-dichlorophenyl)-N-[(4S)-3,4-dihydro-2H-chromen-4-yl]-6-methyl-3-(propan-2-yl)pyrazolo[5,1-b][1,3]thiazole-2-carboxamide], in assay [1], the inhibition at 10 µg/mL was above 80%. Moreover, the figures for the EC50 in assay [2] and in assay [4] were below 0.1 µg/mL and 3.16 to 31.6 nM, respectively.
As for `Cc1nn2c(C(C)C)c(C(=O)N[C@H]3CCOc4ccccc43)sc2c1-c1cc(Cl)cc(Cl)c1Cl` [Example 12, N-[(4S)-3,4-dihydro-2H-chromen-4-yl]-6-methyl-3-(propan-2-yl)-7-(2,3,5-trichlorophenyl)pyrazolo[5,1-b][1,3]thiazole-2-carboxamide], the EC50 in assay [2] was below 0.1 µg/mL; in assay [4], below 3.16 nM. The mortality at 20 ppm in assay [3] is 100%; in assay [5] it was 80%.
With `Cc1nn2c(C(C)C)c(C(=O)N[C@H]3CCOc4ccccc43)sc2c1-c1ccc(F)c(F)c1F` [Example 9], the results for the half-maximal effective concentration (EC50) in assay [2] and in assay [4] were below 0.1 µg/mL and 3.16 to 31.6 nM, respectively. For the same compound, the mortality at 20 ppm in assay [3] is 90%.
Turning to `Cc1nn2c(C(C)C)c(C(=O)N[C@H]3CCOc4ccccc43)sc2c1-c1cccc(C(F)(F)F)c1Cl` [Example 11, 7-[2-chloro-3-(trifluoromethyl)phenyl]-N-[(4S)-3,4-dihydro-2H-chromen-4-yl]-6-methyl-3-(propan-2-yl)pyrazolo[5,1-b][1,3]thiazole-2-carboxamide], the EC50 in assay [2] was below 0.1 µg/mL; in assay [4] it was below 3.16 nM. The mortality at 20 ppm in assay [3] amounted to 100%; in assay [5], 90%.
Regarding `Cc1nn2c(C(C)C)c(C(=O)N[C@H]3CCc4ccccc43)sc2c1-c1cccc(Cl)c1Cl` [Example 15, 7-(2,3-dichlorophenyl)-N-[(1S)-2,3-dihydro-1H-inden-1-yl]-6-methyl-3-(propan-2-yl)pyrazolo[5,1-b][1,3]thiazole-2-carboxamide], the EC50 is below 0.1 µg/mL in assay [2] and below 3.16 nM in assay [4].
As for `Cc1nn2c(C(C)C)c(C(=O)N[C@H]3CCOc4ccccc43)sc2c1-c1cccc(N(C)C)c1F` [Example 13, N-[(4S)-3,4-dihydro-2H-chromen-4-yl]-7-[3-(dimethylamino)-2-fluorophenyl]-6-methyl-3-(propan-2-yl)pyrazolo[5,1-b][1,3]thiazole-2-carboxamide], in assay [1], the inhibition at 1 µg/mL is above 80%. Moreover, the EC50 in assay [2] is below 0.1 µg/mL; in assay [4], below 3.16 nM. For the same compound, the mortality at 20 ppm in assay [3] was found to be 90%.
As for `Cc1nn2c(C(C)C)c(C(=O)N[C@H]3CCOc4ccccc43)sc2c1-c1cccc(Cl)c1Cl` [Example 2, 7-(2,3-dichlorophenyl)-N-[(4S)-3,4-dihydro-2H-chromen-4-yl]-6-methyl-3-(propan-2-yl)pyrazolo[5,1-b][1,3]thiazole-2-carboxamide], the inhibition at 10 µg/mL in assay [1] is above 80%. Moreover, the EC50 in assay [2] was below 0.1 µg/mL; in assay [4], below 3.16 nM. Moreover, the mortality at 20 ppm in assay [3] stood at 90%.
In the case of `Cc1nn2c(C(C)C)c(C(=O)N[C@H]3CCOc4ccccc43)sc2c1-c1cc(Cl)c(F)c(Cl)c1` [Example 5, 7-(3,5-dichloro-4-fluorophenyl)-N-[(4S)-3,4-dihydro-2H-chromen-4-yl]-3-isopropyl-6-methylpyrazolo[5,1-b][1,3]thiazole-2-carboxamide], in assay [1], the inhibition at 1 µg/mL was above 80%. In assay [1], the inhibition at 10 µg/mL was above 80%. The EC50 was below 0.1 µg/mL in assay [2] and below 3.16 nM in assay [4]. For the same compound, the mortality at 20 ppm in assay [3] was found to be 90%.
Consider `Cc1nn2c(C(C)C)c(C(=O)N[C@H]3CCOc4ccccc43)sc2c1-c1cccc(OC(F)(F)F)c1F` [Example 4, N-[(4S)-3,4-dihydro-2H-chromen-4-yl]-7-[2-fluoro-3-(trifluoromethoxy)phenyl]-3-isopropyl-6-methylpyrazolo[5,1-b][1,3]thiazole-2-carboxamide], for which the inhibition at 10 µg/mL in assay [1] is above 80%. In addition, the half-maximal effective concentration (EC50) in assay [2] is below 0.1 µg/mL; in assay [4] it was below 3.16 nM. Further, the mortality at 20 ppm in assay [3] and in assay [5] was 80% throughout.
In the case of `Cc1nn2c(C(C)C)c(C(=O)N[C@H]3CCOc4ccccc43)sc2c1-c1cccc(C(F)(F)F)c1F` [Example 3, 7-[2-fluoro-3-(trifluoromethyl)phenyl]-N-[(4S)-3,4-dihydro-2H-chromen-4-yl]-6-methyl-3-(propan-2-yl)pyrazolo[5,1-b][1,3]thiazole-2-carboxamide], in assay [1], the inhibition at 10 µg/mL is above 80%. Further, the results for the EC50 in assay [2] and in assay [4] were below 0.1 µg/mL and below 3.16 nM, respectively. The mortality at 20 ppm in assay [3] and in assay [5] was 90% throughout.
On to `Cc1nn2c(C(C)C)c(C(=O)N[C@H]3CCOc4ccccc43)sc2c1-c1c(Cl)cccc1Cl` [Example 10, 7-(2,6-dichlorophenyl)-N-[(4S)-3,4-dihydro-2H-chromen-4-yl]-6-methyl-3-(propan-2-yl)pyrazolo[5,1-b][1,3]thiazole-2-carboxamide], for which the EC50 is below 0.1 µg/mL in assay [2] and below 3.16 nM in assay [4].
In the case of `Cc1nn2c(C(C)C)c(C(=O)N[C@H]3CCOc4ccccc43)sc2c1-c1cc(Cl)cc(Cl)c1` [Example 1, 7-(3,5-dichlorophenyl)-N-[(4S)-3,4-dihydro-2H-chromen-4-yl]-3-isopropyl-6-methylpyrazolo[5,1-b][1,3]thiazole-2-carboxamide], in assay [1], the inhibition at 1 µg/mL is above 80% and the inhibition at 10 µg/mL is above 80%. Also, the EC50 in assay [2] was below 0.1 µg/mL. Further, the mortality at 20 ppm in assay [5] was found to be 90%. The compound further showed an EC50 in assay [4] of 3.16 to 31.6 nM.
Consider `Cc1nn2c(C(C)C)c(C(=O)N[C@H]3CCOc4ccccc43)sc2c1-c1ccc(F)c(F)c1` [Example 8, 7-(3,4-difluorophenyl)-N-[(4S)-3,4-dihydro-2H-chromen-4-yl]-6-methyl-3-(propan-2-yl)pyrazolo[5,1-b][1,3]thiazole-2-carboxamide], for which the EC50 was below 0.1 µg/mL in assay [2] and 3.16 to 31.6 nM in assay [4].
